Test results taken from patent US10265310B2, “6-membered cyclic amines or lactames substituted with urea and phenyl” (GRÜNENTHAL GMBH, priority 2016, dated 2019).

Columns and labels:
FPR2 = FPR2 (Homo sapiens (Human), UniProt P25090); test: Agonistic activity (calcium FLIPR) in hFPR2-Aq-CHO cells; type: cell-based; details: FLIPR Calcium 5 dye fluorescence, agonistic response
Method: (§1) Cells (hFPR1-Gα15-CHO or hFPR2-Aq-CHO) are suspended in 10 mL of respective complete medium (F12(1×) HAM media; 10% HI-FBS; 0.1 mg/ml Hygromycin B and 0.2 mg/ml Zeocin [for hFPR1 only]; 0.4 mg/mL Geneticin and 0.25 mg/ml Zeocin [for hFPR2-Aq only]) and viability is checked using Trypan Blue exclusion. After washing, the cells are plated at 10,000 cells per well in 40 μL complete medium in a 384-well sterile clear bottom black plate and incubated in a 5% CO2 incubator at 37° C. for 18 hours. Plating media is removed from each well by decanting and gentle tapping before 30 μL of 0.5× Calcium 5 dye solution (0.5×FLIPR Calcium 5 dye (Molecular devices, R8186)); HBSS; 20 mM HEPES; 2.5 mM Probenecid; 0.025% Pluronic F-127; pH adjusted to 7.4) is added to each well and the plate is then incubated at 37° C. for 30 minutes. For the assay the plate is equilibrated at room temperature for 10 minutes before placing it in the FLIPR. Compounds are dissolved in DMSO and serially diluted over an 11 point half log (3.16 fold) dilution (2 mM to 20 nM). Compounds are then diluted 1:50 in assay buffer (HBSS; 20 mM HEPES; 2.5 mM Probenecid; 0.05% gelatin; 0.1% BSA; pH adjusted to 7.4) just before performing the assay. Compounds are finally added to the respective wells of the cell plate (final assay concentration 10 μM to 100 pM) using the FLIPR (e.g. FLIPR-Tetra, Molecular Devices) and fluorescence readings are captured for 5 minutes. The increase in fluorescence from the basal reading in the presence of the compounds is compared with that of the control wells (wells having no compound) to calculate the activity of the compounds. The EC50 values of the compounds can be determined using e.g. Graph pad Prism software.
(§2) Assay Method for Measuring Agonistic Activity of Compounds in hFPR1-Gα15-CHO and hFPR2-Aq-CHO Cell
(§3) Cryo-vial containing 6×10^6 cells (hFPR1-Gα15-CHO or hFPR2-Aq-CHO) was thawed in a 37° C. water bath. Cells were suspended in 10 ml of respective complete growth media (F12(1×) HAM media (Gibco; Cat#11765); 10% HI-FBS (Gibco; Cat#10082); 0.1 mg/ml Hygromycin B (Invitrogen; Cat#10687-010) [for hFPR1 only]; 0.2 mg/ml Zeocin (Invitrogen; Cat#R25001) [for hFPR1 only]; 0.4 mg/ml Geneticin (Gibco; Cat#10131) [for hFPR2-Aq only]; 0.25 mg/ml Zeocin (Invitrogen; Cat#R25001) [for hFPR2-Aq only]) in a 15 ml centrifuge tube. The cell viability was checked with the help of Trypan Blue dye. Upon washing the cells, those were plated in a 384-well sterile clear bottom black plate (Greiner Bioone Cat#781091) so that, each well contained 10,000 cells in 40 μl complete growth media. The plate was incubated in a 5% CO2 incubator at 37° C. for 18 hours.
(§4) Before assay on the next day, the cell plating media was removed from each well of the plate by decanting and gentle tapping. 30 μl, 0.11 of 0.5× Calcium 5 dye solution (0.5×FLIPR Calcium 5 dye (Molecular devices Cat# R8186); HBSS (Invitrogen; Cat#14025); 20 mM HEPES (Sigma; Cat#H0887); 2.5 mM Probenecid (Sigma; Cat#P8761); 0.025% Pluronic F-127 (Sigma; Cat#P2443); pH adjusted to 7.4) was added to each well. The plate was then incubated at 37° C. for 30 minutes. Following which the plate was equilibrated at room temperature for 10 minutes before placing it in a 384 well FLIPR for assay. Compounds were dissolved in DMSO and serially diluted following 11 point half log (3.16 fold) dilution with a starting concentration of 2 mM (Final assay concentration 10 μM). Aliquots of above mentioned each dilution was mixed with assay buffer (HBSS (Invitrogen; Cat#14025); 20 mM HEPES (Sigma; Cat#H0887); 2.5 mM Probenecid (Sigma; Cat#P8761); 0.05% gelatin (Sigma; Cat#G1890); 0.1% BSA (Sigma; Cat#A3059); pH adjusted to 7.4) just before performing the assay. Compounds were added to the respective wells of the assay ready cell plate with the help of the FLIPR (FLIPR Tetra) and fluorescence readings were captured for 5 minutes to measure any agonistic response of the compounds. […]

FPR1 = FPR1 (Homo sapiens (Human), UniProt P21462); test: Agonistic activity (calcium FLIPR) in hFPR1-Gα15-CHO cells; type: cell-based; details: FLIPR Calcium 5 dye fluorescence, agonistic response
Method: as §1, §2, §3, §4

FPR2, sequence (P25090 whole entry): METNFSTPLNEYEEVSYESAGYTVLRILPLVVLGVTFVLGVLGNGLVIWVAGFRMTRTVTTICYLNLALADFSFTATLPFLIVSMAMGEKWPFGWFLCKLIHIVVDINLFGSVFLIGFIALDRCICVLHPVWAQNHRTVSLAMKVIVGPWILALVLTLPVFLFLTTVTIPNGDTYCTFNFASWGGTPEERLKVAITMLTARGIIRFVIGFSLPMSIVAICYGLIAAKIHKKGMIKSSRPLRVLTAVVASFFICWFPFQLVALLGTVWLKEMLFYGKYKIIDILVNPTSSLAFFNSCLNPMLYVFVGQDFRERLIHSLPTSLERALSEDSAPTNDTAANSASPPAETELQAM
FPR1, sequence (P21462 whole entry): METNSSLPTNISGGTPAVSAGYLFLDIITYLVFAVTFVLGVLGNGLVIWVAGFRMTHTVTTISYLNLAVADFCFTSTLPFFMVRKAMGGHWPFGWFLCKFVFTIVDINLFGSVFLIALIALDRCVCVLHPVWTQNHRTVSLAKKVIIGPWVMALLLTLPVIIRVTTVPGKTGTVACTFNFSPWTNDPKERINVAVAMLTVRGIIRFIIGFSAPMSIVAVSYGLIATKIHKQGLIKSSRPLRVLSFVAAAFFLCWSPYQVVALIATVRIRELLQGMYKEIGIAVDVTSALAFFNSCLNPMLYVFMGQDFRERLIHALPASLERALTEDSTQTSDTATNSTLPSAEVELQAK

Row | SMILES | EC50 (FPR2) | EC50 (FPR1)
1 | COc1cc(F)c(C2CCNCC2NC(=O)Nc2ccc(Cl)cc2)c(F)c1 (single isomer, unassigned; ent1) [Example 36, trans-ent1-1-(4-chlorophenyl)-3-(4-(2,6-difluoro-4-methoxyphenyl)piperidin-3-yl)urea] | < 1 nM | 1 to 1000 nM
2 | COc1cc(F)c(C2CCN(C(=O)C3CC3)CC2NC(=O)Nc2ccc(Cl)cc2)c(F)c1 (single isomer, unassigned; ent1) [Example 39, trans-ent1-1-(4-chlorophenyl)-3-(1-(cyclopropanecarbonyl)-4-(2,6-difluoro-4-methoxyphenyl)piperidin-3-yl)urea] | < 1 nM | 1 to 1000 nM
3 | COc1cc(F)c(C2CC(=O)NCC2NC(=O)Nc2ccncc2)c(F)c1 (single isomer, unassigned; ent1) [Example 47, ent1-1-(4-(2,6-difluoro-4-methoxyphenyl)-6-oxopiperidin-3-yl)-3-(pyridin-4-yl)urea] | 1 to 1000 nM | 1 to 1000 nM
4 | COc1cc(F)c(C2CC(=O)NCC2NC(=O)Nc2ccc(Cl)cc2)c(F)c1 (single isomer, unassigned; ent1) [Example 49, trans-ent1-1-(4-chlorophenyl)-3-(4-(2,6-difluoro-4-methoxyphenyl)-6-oxopiperidin-3-yl)urea] | 1 to 1000 nM | 1 to 1000 nM
5 | COc1ccc(C2CC(=O)NCC2NC(=O)Nc2ccc(Cl)cc2)cc1 (single isomer, unassigned; ent1) [Example 76, trans-ent1-1-(4-chlorophenyl)-3-(4-(4-methoxyphenyl)-6-oxopiperidin-3-yl)urea] | < 1 nM | 1 to 1000 nM
6 | O=C(Nc1ccc(Cl)cc1)NC1CNCCC1c1ccccc1 (single isomer, unassigned; ent1) [Example 80, trans-ent1-1-(4-chlorophenyl)-3-(4-phenylpiperidin-3-yl)urea] | 1 to 1000 nM | 1 to 1000 nM
7 | O=C(Nc1ccc(Cl)cc1)NC1CN(C(=O)C2CC2)CCC1c1ccccc1 (single isomer, unassigned; ent1) [Example 83, trans-ent1-1-(4-chlorophenyl)-3-(1-(cyclopropanecarbonyl)-4-phenylpiperidin-3-yl)urea] | 1 to 1000 nM | 1 to 1000 nM
8 | COc1ccc(C2CCN(C(=O)C3CC3)CC2NC(=O)Nc2ccc(Cl)cc2)c(F)c1 (single isomer, unassigned; ent1) [Example 86, trans-ent1-1-(4-chlorophenyl)-3-(1-(cyclopropanecarbonyl)-4-(2-fluoro-4-methoxyphenyl)piperidin-3-yl)urea] | < 1 nM | < 1 nM
9 | O=C1CC(c2ccc(Cl)cc2)C(NC(=O)Nc2ccc(Cl)cc2)CN1 (single isomer, unassigned; ent1) [Example 91, trans-ent1-1-(4-chlorophenyl)-3-(4-(4-chlorophenyl)-6-oxopiperidin-3-yl)urea] | 1 to 1000 nM | 1 to 1000 nM
10 | COc1cc(F)c(C2CCNCC2NC(=O)Nc2ccc(Cl)cc2)c(F)c1 (single isomer, unassigned; ent2) [Example 37, trans-ent2-1-(4-chlorophenyl)-3-(4-(2,6-difluoro-4-methoxyphenyl)piperidin-3-yl)urea] | 1 to 1000 nM | 1 to 1000 nM
11 | COc1cc(F)c(C2CCN(C(=O)C3CC3)CC2NC(=O)Nc2ccc(Cl)cc2)c(F)c1 (single isomer, unassigned; ent2) [Example 40, trans-ent2-1-(4-chlorophenyl)-3-(1-(cyclopropanecarbonyl)-4-(2,6-difluoro-4-methoxyphenyl)piperidin-3-yl)urea] | 1 to 1000 nM | 1 to 1000 nM
12 | COc1cc(F)c(C2CC(=O)NCC2NC(=O)Nc2ccncc2)c(F)c1 (single isomer, unassigned; ent2) [Example 48, ent2-1-(4-(2,6-difluoro-4-methoxyphenyl)-6-oxopiperidin-3-yl)-3-(pyridin-4-yl)urea] | 1 to 1000 nM | 1 to 1000 nM
13 | COc1cc(F)c(C2CC(=O)NCC2NC(=O)Nc2ccc(Cl)cc2)c(F)c1 (single isomer, unassigned; ent2) [Example 50, trans-ent2-1-(4-chlorophenyl)-3-(4-(2,6-difluoro-4-methoxyphenyl)-6-oxopiperidin-3-yl)urea] | < 1 nM | 1 to 1000 nM

Continued, values first:

Row | EC50 (FPR2) | EC50 (FPR1) | SMILES
14 | < 1 nM | 1 to 1000 nM | COc1ccc(C2CC(=O)NCC2NC(=O)Nc2ccc(Cl)cc2)c(F)c1 (single isomer, unassigned; ent1) [Example 42, trans-ent1-1-(4-chlorophenyl)-3-(4-(2-fluoro-4-methoxyphenyl)-6-oxopiperidin-3-yl)urea]
15 | < 1 nM | 1 to 1000 nM | COCCN1CC(NC(=O)Nc2ccc(Cl)cc2)C(c2ccc(OC)cc2F)CC1=O (single isomer, unassigned; ent1) [Example 59, trans-ent1-1-(4-Chlorophenyl)-3-[4-(2-fluoro-4-methoxy-phenyl)-1-(2-methoxy-ethyl)-6-oxo-piperidin-3-yl]-urea]
16 | < 1 nM | < 1 nM | COc1ccc(C2CC(=O)N(CC(F)F)CC2NC(=O)Nc2ccc(Cl)cc2)c(F)c1 (single isomer, unassigned; ent1) [Example 61, trans-ent1-1-(4-Chlorophenyl)-3-[1-(2,2-difluoro-ethyl)-4-(2-fluoro-4-methoxy-phenyl)-6-oxo-piperidin-3-yl]-urea]
17 | 1 to 1000 nM | 1 to 1000 nM | COCCN1CC(NC(=O)Nc2ccc(Cl)cc2)C(c2ccc(F)cc2F)CC1=O (single isomer, unassigned; ent1) [Example 63, trans-ent1-1-(4-Chlorophenyl)-3-[4-(2,4-difluoro-phenyl)-1-(2-methoxy-ethyl)-6-oxo-piperidin-3-yl]-urea]
18 | 1 to 1000 nM | 1 to 1000 nM | O=C(Nc1ccc(Cl)cc1)NC1CN(CC(F)F)C(=O)CC1c1ccc(F)cc1F (single isomer, unassigned; ent1) [Example 65, trans-ent1-1-(4-Chlorophenyl)-3-[1-(2,2-difluoro-ethyl)-4-(2,4-difluoro-phenyl)-6-oxo-piperidin-3-yl]-urea]
19 | 1 to 1000 nM | 1 to 1000 nM | O=C1CC(c2ccc(F)cc2F)C(NC(=O)Nc2ccc(Cl)cc2)CN1 (single isomer, unassigned; ent1) [Example 67, trans-ent1-1-(4-Chlorophenyl)-3-[4-(2,4-difluoro-phenyl)-6-oxo-piperidin-3-yl]-urea]
20 | 1 to 1000 nM | 1 to 1000 nM | COc1ccc(C2CC(=O)NCC2NC(=O)Nc2ccc(Cl)cc2)c(F)c1 (single isomer, unassigned; ent2) [Example 43, trans-ent2-1-(4-chlorophenyl)-3-(4-(2-fluoro-4-methoxyphenyl)-6-oxopiperidin-3-yl)urea]
21 | 1 to 1000 nM | 1 to 1000 nM | COc1ccc(C2CCNCC2NC(=O)Nc2ccc(Cl)cc2)c(F)c1 (single isomer, unassigned; ent2) [Example 46, ent2-1-(4-chlorophenyl)-3-(4-(2-fluoro-4-methoxyphenyl)piperidin-3-yl)urea]
